Test system: carrageenan-induced edema
Assay: Carrageenan-induced hind paw edema in rats, humate in chow for 37 days with or without indomethacin (Example 3)
Assay type: in vivo, rat
Conditions: indomethacin only, 3 mg/kg subcutaneously 30 min before carrageenan; P<0.05
From the text: Male Sprague Dawley rats weighing approximately 50 g were purchased from Harlan U.S. and housed in wire cages in the animal facility at Mercer University School of Pharmacy. The animals were given a short period of time to acclimate to the new environment and received powdered rat chow from Purina and water ad libitum. At the beginning of the experimental period, the rats were divided into six groups of eight each. Control and indomethacin only groups received only powdered rat chow for the entire length of the experiment. For the four other groups, insoluble granular Menefee Humate® was mixed with the powdered rat chow and placed in feeders. Rats received chow with either 0.1%, 0.5% or 1.0% insoluble, granular Menefee Humate® by weight. After 37 days of receiving humate in their food, the animals weighed approximately 278 g, which in an appropriate size for inducing inflammation. An amount of indomethacin sufficient to achieve 50% inhibition of carrageenan-induced edema (3 mg/kg) was administered to the indomethacin only group and to the 0.1% humate plus indomethacin group. The indomethacin was administered subcutaneously 30 minutes before the administration of carageenan. The rats were then injected in one hind paw with carrageenan (2%). After three hours, the hind paws were measured by mercury displacement.

**Q.** How did the “inhibition of carrageenan-induced edema” value turn out when `COc1ccc2c(c1)c(CC(=O)O)c(C)n2C(=O)c1ccc(Cl)cc1` [indomethacin] was run?
**A.** ~50%

— patent US7067155B2, “Anti-inflammatory humate compositions and methods of use thereof” (TBNI, Inc., priority 2003, dated 2006)
